Source: article PMC10865344, “Self-Assembly and Antimicrobial Activity of Lipopeptides Containing Lysine-Rich Tripeptides” (Biomacromolecules, 2024)
≈ marks a conversion by molar mass, not a printed value. Where a SMILES comes first, the peptide text is derived from it. [ ]: non-standard residue; d: D form. The star is where a group is joined. Palmitoyl = CCCCCCCCCCCCCCCC(=O)*

Tests used:
S. aureus NCDO 949 = format: cell-based, Staphylococcus aureus; conditions: NCDO 949, 24 h
Description: (§1) Antibacterial susceptibility testing was performed using a broth microdilution assay, against both Gram-negative and Gram-positive bacteria, as previously described by Kourmentza et al.[44] The target strains used were E. coli K-12, S. enterica NCTC 5188, and S. aureus NCDO 949. The test compounds were dissolved in water, filter-sterilized, and further diluted in Mueller-Hinton broth (MHB) which was used as the growth medium for the tests. 2-fold dilutions were performed, and 100 μL of each dilution was transferred to each well of 96-well plates. The final test concentration range of the compounds was 1.95–1000 μg/mL. Additionally, the 96-well plates contained wells with 200 μL of growth medium that served as sterility controls and wells filled with 100 μL of growth medium and 100 μL of inoculum that served as growth controls. The remaining wells were inoculated with 100 μL of a bacterial culture. The bacterial suspensions were prepared from overnight cultures in MHB. The bacterial density was adjusted to 0.5 McFarland (standard), and the suspensions were subsequently diluted 100 times using the growth medium. The 96-well plates were incubated at 37 °C for 24 h and the OD at 620 nm of the wells was assessed for growth. The MIC was defined as the lowest concentration of the antimicrobial agent tested that prevented any discernible growth after 24 h.
(§2) Since all the molecules are biocompatible at low concentrations, their antibacterial efficacy was examined in preliminary tests using a broth microdilution assay against both Gram-negative and Gram-positive bacteria. Here, E. coli K-12, S. enterica NCTC 5188 were cultured as Gram-negative bacteria and S. aureus NCDO 949 was used as a model Gram-positive bacterium. The lipopeptides were dissolved in water, filter-sterilized, and further diluted in Mueller-Hinton broth, which was used as the growth medium for the experiment to determine MIC values. […] E. coli was most susceptible to compounds P1 and P1D with MICs falling within the range of 15.63–31.25 μg/mL (Table 1). […] Overall, the P1 analogues have lower MIC values than those for the P2 analogues, especially for S. enterica.

E. coli K-12 = format: cell-based, Escherichia coli; conditions: K-12, 24 h
Description: as §1, §2

[1] = test system: L929 murine fibroblast cell lines; conditions: 48 h, 0.05 wt %
Description: L929 murine fibroblast cell lines (ECACC General Cell Collection) were grown in Dulbecco’s modified Eagle’s medium (DMEM) supplemented with 10% fetal bovine serum (FBS), 20 mM HEPES, and 1% GlutaMAX. The cells were maintained at pH 7.4, 37 °C, and 5% CO2 in 25 cm^2 cell culture flasks.
For the cytotoxicity assay, approximately 6000 cells per well were seeded in 96-well plates. The medium was exchanged after 24 h by adding solutions of different concentrations of the lipopeptides ranging from 0.05 to 0.0001 wt %. After 48 h of treatment, cell viability was assessed using an MTT [3-(4, 5-dimethylthiazolyl-2)-2, 5-diphenyltetrazolium bromide] assay. Here, the culture medium was removed, followed by the addition of a solution of MTT in DMEM medium at a concentration of 0.5 mg/mL. The plate was incubated for 4 h at 37 °C. Next, to dissolve the formazan crystals, dimethyl sulfoxide was added. Thereafter, using an automatic plate reader, the absorbance was measured at 560 nm. Cell survival was expressed as a percentage of viable cells in the presence of peptides compared with control cells grown in their absence. The assay was repeated three times, and the results were averaged. Statistical significance was tested using multiple Student’s t-tests.
Here, the cytotoxicity of all the lipopeptides was investigated by MTT assays on L929 murine fibroblast cell lines. […] For all the lipopeptides, the cytotoxicity results were obtained after 48 h of cell culture.

[2] = Critical aggregation concentration (CAC) by ANS fluorescence probe assay; format: physicochemical; conditions: 2 × 10^–3 wt % ANS solution, λex = 356 nm, emission 486 nm, 25 °C, aqueous solution
Description: Fluorescence experiments were carried out using a Varian Cary Eclipse spectrofluorometer in 4 mm inner-width quartz cuvettes. Excitation and emission bandwidths of 2.5 nm were used as the experimental settings. The temperature was set at 25 °C for all of the experiments. The CAC value for all of the lipopeptides was assessed by fluorescence experiments with 8-anilo-1-naphthalenesulfonic acid (ANS). ANS is a suitable fluorophore to determine the CAC value, due to changes in local hydrophobicity.[43] For this assay, various concentrations of samples were prepared in 2 × 10^–3 wt % ANS solution. Fluorescence spectra were recorded from 400 to 670 nm with λex = 356 nm.
To determine the CAC value of individual lipopeptides, the results were plotted as I/I0 versus log(c/wt %), where I stands for the maximum fluorescence intensity of ANS containing the various concentrations of samples and I0 stands for the intensity for the control, i.e., ANS solution without lipopeptide.
To determine CAC values of these lipopeptides, fluorescence probe assays using ANS were performed.[43] Emission spectra of the four lipopeptides were collected at different concentrations after excitation at 356 nm. At higher concentrations, an emission peak at 486 nm is visible. […] The lower CAC values for P2 and P2D are due to the higher hydrophobicity of tryptophan than tyrosine.

S. enterica NCTC 5188 = test: Antibacterial susceptibility, broth microdilution assay (MIC); format: cell-based, Salmonella enterica; conditions: S. enterica NCTC 5188, broth microdilution in Mueller-Hinton broth, 37 °C, 24 h, OD 620 nm, test range 1.95–1000 μg/mL
Description: as §1, with “24 h. […]” for “24 h.”

[3] = SAXS of micelles, core-shell sphere form factor and hard sphere structure factor fit; format: physicochemical
Description: SAXS experiments were performed on beamline B21 at Diamond (Didcot, UK). The sample solutions were loaded into the 96-well plate of an EMBL BioSAXS robot and then injected via an automated sample exchanger into a quartz capillary (1.8 mm internal diameter) with the X-ray beam. The quartz capillary was enclosed in a vacuum chamber to avoid parasitic scattering. After the sample was injected into the capillary and reached the X-ray beam, the flow was stopped during SAXS data acquisition. Beamline B21 operates with a fixed camera length (3.9 m) and fixed energy (12.4 keV). The images were captured by using a PILATUS 2 M detector. Data processing was performed by using the dedicated beamline software ScÅtter.
More quantitative information about these self-assembled nanostructures was obtained from SAXS, also performed for 1 wt % aqueous solutions of the four lipopeptides. Consistent with cryo-TEM, the form factors for P1, P1D, P2, and P2D can be fitted based on the core–shell sphere structure corresponding to a hydrophobic core and peptide corona. The fit parameters listed in SI Table S1 show outer radii in the range (2.47–2.90 ± 0.4) nm, consistent with cryo-TEM. The inner core radius is 1.45–1.56 nm, which is consistent with the length of an extended C16 lipid chain plus the first hydrophobic amino acid (Y or W). […] The shell thickness may be compared to the length of a tripeptide in an extended structure (such as PPII), 3 × 0.31 nm = 0.93 nm (residue translation value taken from ref ([55])) and is in good agreement with this value for P1, P1D, and P2D. […] The form factor parameters are the same within uncertainties for the other three lipopeptides. The association number can be estimated for P1 (similar values are expected for P1D and P2D since the micelle radius and molecular volume are similar) using the volume of a micelle Vmic = 4/3π(2.52 nm)^3 = 67.0 nm^3, while the molecular volume Vmol = 0.62 nm^3 was obtained from the hydrophobicity surface/molecular volume calculation in UCSF Chimera.[56] This leads to an estimated association number p = Vmic/Vmol = (108 ± 20). […]

[4] = 1 wt% sample at native pH = 4, core-shell sphere form factor

Row | SMILES | MIC (S. aureus NCDO 949) | MIC (E. coli K-12) | lower range MIC value for E. coli as molar concentration (E. coli K-12) | cell viability [1] | CAC (concentration at the breakpoint of I/I0 at 486 nm vs concentration) [2] | MIC (S. enterica NCTC 5188) | Ri, micelle inner core radius [3, 4] | Ro, micelle outer radius [3, 4] | RHS, hard sphere radius ([3]; 1 wt% sample at native pH = 4, hard sphere structure factor)
1 | CCCCCCCCCCCCCCCC(=O)N[C@@H](Cc1ccc(O)cc1)C(=O)N[C@H](CCCCN)C(=O)N[C@H](CCCCN)C(N)=O [P1D] (Palmitoyl-Tyr-[dK]-[dK]-NH2) | 31.25 µg/mL (≈ 46.3 µM) | 15.63 to 31.25 µg/mL | 22 to 23 µM | 44.1 ± 7.6% | – | – | – | – | –
2 | CCCCCCCCCCCCCCCC(=O)N[C@@H](Cc1ccc(O)cc1)C(=O)N[C@@H](CCCCN)C(=O)N[C@@H](CCCCN)C(N)=O [P1] (Palmitoyl-Tyr-Lys-Lys-NH2) | 31.25 to 62.5 µg/mL | 15.63 to 31.25 µg/mL | 22 to 23 µM | 53.1 ± 5.1% | – | – | – | – | –
3 | CCCCCCCCCCCCCCCC(=O)N[C@@H](Cc1c[nH]c2ccccc12)C(=O)N[C@H](CCCCN)C(=O)N[C@H](CCCCN)C(N)=O [P2D] (Palmitoyl-Trp-[dK]-[dK]-NH2) | 31.25 to 62.5 µg/mL | 31.25 to 62.5 µg/mL | – | 13.0 ± 1.1% | 0.00257 ± 0.05 wt % | 62.5 µg/mL (≈ 89.5 µM) | 15.1 Å | 26.3 Å | 79.3 Å
4 | CCCCCCCCCCCCCCCC(=O)N[C@@H](Cc1c[nH]c2ccccc12)C(=O)N[C@@H](CCCCN)C(=O)N[C@@H](CCCCN)C(N)=O [P2] (Palmitoyl-Trp-Lys-Lys-NH2) | 31.25 to 62.5 µg/mL | 15.63 to 62.5 µg/mL | 22 to 23 µM | 20.2 ± 2.8% | – | 62.5 to 250 µg/mL | – | – | –
